From ChEMBL document CHEMBL3046517, “Synthesis and antimicrobial study of fluoroquinolone-based 4-thiazolidinones” (2010)
In brackets after ≈: the same amount, converted by molar mass. Activity calls are given as the source filed them. The rule behind the calls is not given here.

Legend:
Type in all cases: functional
Aspergillus niger = test: Antifungal activity against Aspergillus niger by broth dilution method
Staphylococcus aureus = test: Antibacterial activity against Staphylococcus aureus by broth dilution method
Pseudomonas aeruginosa = test: Antibacterial activity against Pseudomonas aeruginosa by broth dilution method
Aspergillus clavatus = test: Antifungal activity against Aspergillus clavatus by broth dilution method
Escherichia coli = test: Antibacterial activity against Escherichia coli by broth dilution method
Candida albicans = test: Antifungal activity against Candida albicans by broth dilution method
Streptococcus pyogenes = test: Antibacterial activity against Streptococcus pyogenes by broth dilution method

Compound	MIC (Aspergillus niger) [µg/mL]	MIC (Staphylococcus aureus) [µg/mL]	MIC (Pseudomonas aeruginosa) [µg/mL]	MIC (Aspergillus clavatus) [µg/mL]	MIC (Escherichia coli) [µg/mL]	MIC (Candida albicans) [µg/mL]	MIC (Streptococcus pyogenes) [µg/mL]	Activity (Staphylococcus aureus)	Activity (Pseudomonas aeruginosa)	Activity (Escherichia coli)	Activity (Candida albicans)	Activity (Streptococcus pyogenes)
COc1ccc(C2SCC(=O)N2NC(=O)c2cn(C3CC3)c3cc(N4CCN(c5ccc(OC)cc5)CC4)c(F)cc3c2=O)cc1 (stereo not drawn)	500 (≈ 777 µM)	1000 (≈ 1550 µM)	500 (≈ 777 µM)	> 1000	500 (≈ 777 µM)	500 (≈ 777 µM)	1000 (≈ 1550 µM)					
COc1ccc(N2CCN(c3cc4c(cc3F)c(=O)c(C(=O)NN3C(=O)CSC3c3ccc(O)cc3)cn4C3CC3)CC2)cc1 (stereo not drawn)	1000 (≈ 1590 µM)	500 (≈ 794 µM)	500 (≈ 794 µM)	> 1000	500 (≈ 794 µM)	1000 (≈ 1590 µM)	500 (≈ 794 µM)					
COc1ccc(N2CCN(c3cc4c(cc3F)c(=O)c(C(=O)N/N=C\c3ccccc3)cn4C3CC3)CC2)cc1	500 (≈ 927 µM)	1000 (≈ 1850 µM)	500 (≈ 927 µM)	500 (≈ 927 µM)	500 (≈ 927 µM)	500 (≈ 927 µM)	500 (≈ 927 µM)					
O=C(Cl)c1cn(C2CC2)c2cc(Cl)c(F)cc2c1=O								Active	Active	Active	Active	Active
COc1ccc(N2CCN(c3cc4c(cc3F)c(=O)c(C(=O)N/N=C\c3ccccc3O)cn4C3CC3)CC2)cc1	500 (≈ 900 µM)	500 (≈ 900 µM)	500 (≈ 900 µM)	> 1000	500 (≈ 900 µM)	500 (≈ 900 µM)	500 (≈ 900 µM)					
COc1ccc(N2CCN(c3cc4c(cc3F)c(=O)c(C(=O)N/N=C\c3ccccc3[N+](=O)[O-])cn4C3CC3)CC2)cc1	1000 (≈ 1710 µM)	150 (≈ 257 µM)	100 (≈ 171 µM)	1000 (≈ 1710 µM)	50 (≈ 85.5 µM)	1000 (≈ 1710 µM)	150 (≈ 257 µM)					
COc1ccc(N2CCN(c3cc4c(cc3F)c(=O)c(C(=O)N/N=C\c3ccc(F)cc3)cn4C3CC3)CC2)cc1	500 (≈ 897 µM)	500 (≈ 897 µM)	500 (≈ 897 µM)	500 (≈ 897 µM)	250 (≈ 448 µM)	500 (≈ 897 µM)	500 (≈ 897 µM)					
NYSTATIN	100			100		100						
O=C(N/N=C\c1cccc([N+](=O)[O-])c1)c1cn(C2CC2)c2cc(Cl)c(F)cc2c1=O	1000 (≈ 2330 µM)	1000 (≈ 2330 µM)	200 (≈ 466 µM)	> 1000	200 (≈ 466 µM)	1000 (≈ 2330 µM)	1000 (≈ 2330 µM)					
O=C(N/N=C\c1ccc(O)cc1)c1cn(C2CC2)c2cc(Cl)c(F)cc2c1=O	500 (≈ 1250 µM)	500 (≈ 1250 µM)	500 (≈ 1250 µM)	500 (≈ 1250 µM)	500 (≈ 1250 µM)	500 (≈ 1250 µM)	500 (≈ 1250 µM)					
O=C(N/N=C\c1ccccc1[N+](=O)[O-])c1cn(C2CC2)c2cc(Cl)c(F)cc2c1=O	1000 (≈ 2330 µM)	100 (≈ 233 µM)	200 (≈ 466 µM)	> 1000	500 (≈ 1170 µM)	500 (≈ 1170 µM)	200 (≈ 466 µM)					
COc1ccc(N2CCN(c3cc4c(cc3F)c(=O)c(C(=O)NN3C(=O)CSC3c3ccccc3O)cn4C3CC3)CC2)cc1 (stereo not drawn)	1000 (≈ 1590 µM)	500 (≈ 794 µM)	1000 (≈ 1590 µM)	1000 (≈ 1590 µM)	500 (≈ 794 µM)	500 (≈ 794 µM)	500 (≈ 794 µM)					
COc1ccc(N2CCN(c3cc4c(cc3F)c(=O)c(C(=O)NN3C(=O)CSC3c3ccccc3[N+](=O)[O-])cn4C3CC3)CC2)cc1 (stereo not drawn)	1000 (≈ 1520 µM)	200 (≈ 304 µM)	100 (≈ 152 µM)	1000 (≈ 1520 µM)	500 (≈ 759 µM)	1000 (≈ 1520 µM)	500 (≈ 759 µM)					
COc1ccc(N2CCN(c3cc4c(cc3F)c(=O)c(C(=O)NN3C(=O)CSC3c3ccccc3)cn4C3CC3)CC2)cc1 (stereo not drawn)	500 (≈ 815 µM)	500 (≈ 815 µM)	200 (≈ 326 µM)	500 (≈ 815 µM)	1000 (≈ 1630 µM)	1000 (≈ 1630 µM)	1000 (≈ 1630 µM)					
CC1(C)S[C@@H]2[C@H](NC(=O)[C@H](N)c3ccccc3)C(=O)N2[C@H]1C(=O)O [AMPICILLIN]		250 (≈ 715 µM)	100 (≈ 286 µM)		100 (≈ 286 µM)		100 (≈ 286 µM)					
COc1ccc(N2CCN(c3cc4c(cc3F)c(=O)c(C(=O)NN3C(=O)CSC3c3ccc(Cl)cc3)cn4C3CC3)CC2)cc1 (stereo not drawn)	500 (≈ 771 µM)	100 (≈ 154 µM)	500 (≈ 771 µM)	> 1000	500 (≈ 771 µM)	1000 (≈ 1540 µM)	1000 (≈ 1540 µM)					
CCn1cc(C(=O)O)c(=O)c2cc(F)c(N3CCNCC3)cc21 [NORFLOXACIN]		10 (≈ 31.3 µM)	10 (≈ 31.3 µM)		10 (≈ 31.3 µM)		10 (≈ 31.3 µM)					
COc1ccc(N2CCN(c3cc4c(cc3F)c(=O)c(C(=O)NN3C(=O)CSC3c3cccc([N+](=O)[O-])c3)cn4C3CC3)CC2)cc1 (stereo not drawn)	1000 (≈ 1520 µM)	500 (≈ 759 µM)	200 (≈ 304 µM)	> 1000	500 (≈ 759 µM)	1000 (≈ 1520 µM)	1000 (≈ 1520 µM)					
COc1ccc(/C=N\NC(=O)c2cn(C3CC3)c3cc(N4CCN(c5ccc(OC)cc5)CC4)c(F)cc3c2=O)cc1	> 1000	500 (≈ 878 µM)	200 (≈ 351 µM)	> 1000	100 (≈ 176 µM)	500 (≈ 878 µM)	100 (≈ 176 µM)					
O=C(N/N=C\c1ccc(F)cc1)c1cn(C2CC2)c2cc(Cl)c(F)cc2c1=O	1000 (≈ 2490 µM)	500 (≈ 1240 µM)	500 (≈ 1240 µM)	1000 (≈ 2490 µM)	500 (≈ 1240 µM)	1000 (≈ 2490 µM)	500 (≈ 1240 µM)					
